Bounds are passed on as bounds.

The target of data set [1] is T1, Lysine-specific histone demethylase 1A (Homo sapiens, UniProt O60341). Briefly: Inhibition of human LSD1 expressed in Escherichia coli BL21 (DE3) cells using (ARTK(diMe)QTARKSTGGKAPRKQLA peptide as substrate incubated for 30 mins by HRP reagent based fluorescence method.
For data set [2], the target named is T2, Amine oxidase [flavin-containing] A (Homo sapiens, UniProt P21397).
T2 sequence (P21397 whole entry): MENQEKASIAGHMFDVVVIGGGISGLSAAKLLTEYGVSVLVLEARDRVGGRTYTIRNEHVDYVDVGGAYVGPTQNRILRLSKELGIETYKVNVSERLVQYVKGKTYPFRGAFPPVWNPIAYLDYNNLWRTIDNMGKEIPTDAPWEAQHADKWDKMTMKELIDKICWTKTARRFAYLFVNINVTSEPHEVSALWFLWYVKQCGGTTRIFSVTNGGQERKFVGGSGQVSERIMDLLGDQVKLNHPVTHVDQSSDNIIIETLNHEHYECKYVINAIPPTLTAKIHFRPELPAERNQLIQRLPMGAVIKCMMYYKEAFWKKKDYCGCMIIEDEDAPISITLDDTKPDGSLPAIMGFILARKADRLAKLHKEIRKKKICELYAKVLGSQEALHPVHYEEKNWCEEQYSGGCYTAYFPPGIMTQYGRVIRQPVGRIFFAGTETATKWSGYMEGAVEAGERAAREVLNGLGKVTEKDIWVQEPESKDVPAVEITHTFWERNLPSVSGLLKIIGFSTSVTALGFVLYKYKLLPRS
Briefly: Inhibition of MAO-A (unknown origin) preincubated for 20 mins using 5-hydroxytryptamine as substrate followed by substrate addition and measured after 60 mins.

Data set [3] deals with T3, Amine oxidase [flavin-containing] B (Homo sapiens, UniProt P27338).
T3 sequence (P27338 whole entry): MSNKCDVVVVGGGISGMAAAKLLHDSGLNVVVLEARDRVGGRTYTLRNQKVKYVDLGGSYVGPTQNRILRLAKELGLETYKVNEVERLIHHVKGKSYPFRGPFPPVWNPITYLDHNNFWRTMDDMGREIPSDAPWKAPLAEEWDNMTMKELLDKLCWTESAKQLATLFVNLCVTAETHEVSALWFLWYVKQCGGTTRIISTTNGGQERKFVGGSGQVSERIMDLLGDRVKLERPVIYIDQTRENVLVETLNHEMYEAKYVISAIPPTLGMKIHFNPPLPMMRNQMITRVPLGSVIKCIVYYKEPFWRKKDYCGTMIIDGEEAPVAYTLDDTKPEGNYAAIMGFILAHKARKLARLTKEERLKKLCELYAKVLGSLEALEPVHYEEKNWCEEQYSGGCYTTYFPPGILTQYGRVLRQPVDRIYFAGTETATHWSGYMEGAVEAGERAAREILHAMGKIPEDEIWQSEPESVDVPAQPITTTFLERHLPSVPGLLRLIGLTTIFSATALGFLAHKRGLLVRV
Briefly: Inhibition of MAO-B (unknown origin) using benzylamine as substrate preincubated for 20 mins followed by substrate addition and measured after 60 mins.

Data set [4] deals with MV4-11. Briefly: Antiproliferative activity against human MV4-11 cells incubated for 6 days by MTS assay. In kind it is functional, cell-based. The settings on record: MV4-11, 144 h.
The target in a further data set is T4, MAO-A (Homo sapiens, UniProt P21397).
T4 sequence (P21397 whole entry): T2 sequence (P21397 whole entry)
Briefly: Inhibition of human recombinant MAO-A expressed in Pichia pastoris using kynuramine as substrate at 100 uM by horseradish peroxidase coupled-assay relative to control. The settings on record: probe kynuramine.

The next data set addresses T5, MAO-B (Homo sapiens, UniProt P27338).
T5 sequence (P27338 whole entry): T3 sequence (P27338 whole entry)
Nature of the data set: Inhibition of human recombinant MAO-B expressed in Pichia pastoris using benzylamine as substrate at 100 uM by horseradish peroxidase coupled-assay relative to control. To be noted: probe benzylamine.

In data set [5] the test system is MV4-11. Nature of the data set: Antiproliferative activity against human MV4-11 cells incubated for 48 hrs by CellTiter-Fluor cell viability assay. In kind it is functional, cell-based. The settings on record: MV4-11, 48 h.
In the next data set the test system is NB-4. Nature of the data set: Antiproliferative activity against human NB4 cells incubated for 48 hrs by CellTiter-Fluor cell viability assay. In kind it is functional, cell-based. The settings on record: NB-4, 48 h.
The next data set has as its system HeLa. Briefly: Antiproliferative activity against human HeLa cells after 48 hrs by MTT assay. In kind it is functional.
Another data set concerns HCT-116. Nature of the data set: Antiproliferative activity against human HCT116 cells after 48 hrs by MTT assay. In kind it is functional.
The subject of a further data set is PC-3. Nature of the data set: Antiproliferative activity against human PC-3 cells after 48 hrs by MTT assay. In kind it is functional.
A further data set deals with KYSE-150 cell line. Briefly: Antiproliferative activity against human KYSE150 cells after 48 hrs by MTT assay. In kind it is functional.
In the next data set the test system is SH-SY5Y. Nature of the data set: Antiproliferative activity against human SH-SY5Y cells after 48 hrs by MTT assay. In kind it is functional.
For data set [6], the target named is T2, Amine oxidase [flavin-containing] A. Nature of the data set: biochemical.
The target in data set [7] is T3, Amine oxidase [flavin-containing] B. Nature of the data set: biochemical.
The target is the same in data set [8]. Nature of the data set: Inhibition of MAO-B (unknown origin) measured after 60 mins by luciferin-based luminescence assay.
Data set [9] concerns the target T1, Lysine-specific histone demethylase 1A.
The target is the same in data set [10]. This is another data set of the same source.
For data set [11] the target is unchanged. The source holds these as a separate data set.
The target of data set [12] is T2, Amine oxidase [flavin-containing] A.
Data set [13] shares this target. Nature of the data set: Inhibition of human MAO-A expressed in baculovirus infected BTI insect cells by fluorescence method.
The target of data set [14] is T3, Amine oxidase [flavin-containing] B. Briefly: Inhibition of human MAO-B expressed in baculovirus infected BTI insect cells by fluorescence method.
The target of data set [15] is T6, Lysine-specific histone demethylase 2 (Homo sapiens, UniProt Q8NB78).
T6 sequence (Q8NB78 whole entry): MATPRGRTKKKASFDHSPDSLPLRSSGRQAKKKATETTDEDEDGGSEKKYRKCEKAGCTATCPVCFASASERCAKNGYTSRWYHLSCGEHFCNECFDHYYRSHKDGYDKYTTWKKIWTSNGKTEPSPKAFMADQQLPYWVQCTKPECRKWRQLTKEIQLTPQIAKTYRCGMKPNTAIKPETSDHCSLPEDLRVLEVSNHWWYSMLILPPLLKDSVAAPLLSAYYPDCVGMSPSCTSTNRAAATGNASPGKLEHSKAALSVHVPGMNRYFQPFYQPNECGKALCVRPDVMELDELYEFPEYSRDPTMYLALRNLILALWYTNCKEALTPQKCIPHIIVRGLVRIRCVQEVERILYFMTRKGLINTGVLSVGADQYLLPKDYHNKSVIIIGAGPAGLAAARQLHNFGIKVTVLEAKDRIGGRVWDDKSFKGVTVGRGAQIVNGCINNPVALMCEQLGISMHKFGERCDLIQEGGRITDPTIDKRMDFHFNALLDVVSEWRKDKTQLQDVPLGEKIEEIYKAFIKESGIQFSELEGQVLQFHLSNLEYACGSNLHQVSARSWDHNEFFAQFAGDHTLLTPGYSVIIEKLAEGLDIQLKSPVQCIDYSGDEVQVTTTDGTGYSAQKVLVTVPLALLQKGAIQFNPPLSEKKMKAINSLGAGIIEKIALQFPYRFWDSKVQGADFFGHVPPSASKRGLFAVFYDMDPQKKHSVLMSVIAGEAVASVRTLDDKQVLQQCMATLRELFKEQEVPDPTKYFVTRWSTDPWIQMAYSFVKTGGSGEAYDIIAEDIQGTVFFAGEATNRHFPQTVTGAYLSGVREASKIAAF
Nature of the data set: Inhibition of LSD2 (unknown origin) using Lys4-dimethylated H3 (1-20) peptide as substrate incubated for 30 mins by peroxidase-coupled assay.

The target in data set [16] is T2, Amine oxidase [flavin-containing] A. Nature of the data set: Inhibition of human MAO-A expressed in baculovirus infected BTI insect cells using tyramine as substrate incubated for 30 mins by peroxidase-coupled assay.
The target in data set [17] is T3, Amine oxidase [flavin-containing] B. Briefly: biochemical. This is another data set of the same source.
In data set [18] the target is T1, Lysine-specific histone demethylase 1A. Nature of the data set: Inhibition of His-tagged full length human LSD1 expressed in Escherichia coli BL21 RIPL Codon Plus (DE3) using ARTK(me2)QTARKSTGGKAPRKQLA as substrate preincubated for 10 mins followed by substrate addition by amplex ultra red and HRP reagent based fluorescence method.
In the next data set the test system is Kasumi 1. Briefly: Antiproliferative activity against human KASUMI-1 cells incubated for 72 hrs by CellTiter-glo assay. To be noted: Kasumi 1, 72 h. In kind it is functional, cell-based.
For a further data set, the system named is U-937. Nature of the data set: Antiproliferative activity against human U-937 cells incubated for 72 hrs by CellTiter-glo assay. In kind it is functional, cell-based. The settings on record: U-937, 72 h.
The subject of a further data set is HL-60. Briefly: Antiproliferative activity against human HL-60 cells incubated for 72 hrs by CellTiter-glo assay. In kind it is functional, cell-based. The settings on record: HL-60, 72 h.
The test system of another data set is OCI-AML-3. Briefly: Antiproliferative activity against human OCI-AML3 cells incubated for 72 hrs by CellTiter-glo assay. In kind it is functional, cell-based. The settings on record: OCI-AML-3, 72 h.
The subject of the next data set is THP-1. Briefly: Antiproliferative activity against human THP-1 cells incubated for 72 hrs by CellTiter-glo assay. The settings on record: THP-1, 72 h. In kind it is functional, cell-based.
Data set [19] deals with MV4-11. Briefly: Antiproliferative activity against human MV4-11 cells incubated for 72 hrs by CellTiter-glo assay. In kind it is functional, cell-based. The settings on record: MV4-11, 72 h.

On to `CCN(CC)S(=O)(=O)c1ccc([C@H]2C[C@@H]2N)cc1`, for which the 50% inhibitory concentration (IC50) in data set [1] is 0.123 µM; in [2], 0.806 µM; in [3], 0.898 µM; in the data set with MV4-11 [4], above 30 µM.
Turning to `NC1CC1c1ccc(NC(=O)c2ccc(NC(=O)OCc3ccccc3)cc2)cc1` (configuration not stated), the inhibition at 100 µM at MAO-A amounted to 37%; at MAO-B, 8%. Also, the concentration for half-maximal inhibition (IC50) in the data set with MV4-11 [5] is 0.4 µM; in the data set on NB-4, 0.6 µM.
On to `NC1CC1c1ccc(OCC[C@H](NC(=O)c2ccccc2)C(=O)NCc2ccccc2)cc1` (some centres not stated), for which the GI50 in the data set on HeLa, with HCT-116, with PC-3, in the data set on KYSE-150 cell line and in the data set on SH-SY5Y was 6 µM in each case. Besides, the concentration for half-maximal inhibition (IC50) in data set [6] is 290 µM; in [7], above 1000 µM.
Take `CN1CCN(C(=O)CN[C@@H]2C[C@H]2c2ccc(F)nc2)CC1`: the half-maximal inhibitory concentration (IC50) was determined as 10.8 µM in data set [8]; 0.031 µM in data set [9]; 0.003 µM in data set [10]; 0.007 µM in data set [11]; 12.9 µM in data set [12].
On to `Fc1ccccc1CNC1CC12CCc1ccccc12` (configuration not stated), for which the IC50 is 2.5 µM in [13] and 32 µM in [14].
Taken in the same sequence, the figures for `COc1ccc(CNC2CC23CCc2ccccc23)c(Cl)c1OC` (configuration not stated) were 5 µM and 7 µM.
With `CCN(CC)S(=O)(=O)c1ccc([C@H]2C[C@@H]2NC(=O)OC(C)(C)C)cc1`, the concentration for half-maximal inhibition (IC50) is above 1 µM in data set [1], 0.708 µM in [2], 0.655 µM in [3] and 4.9 µM in the data set on MV4-11 [4].
As to `COc1ccccc1CNC1CC12CCc1ccccc12` (configuration not stated), the concentration for half-maximal inhibition (IC50) in data set [13] stood at 5.9 µM; in data set [14], 12 µM.
In the case of `CN1CCN(C(=O)CNC2CC2c2cc(F)cc(F)c2OCc2ccccc2)CC1` (configuration not stated), the Ki in [15], in data set [16] and in [17] was above 250 µM each time.
With `COc1ccc(Br)cc1CNC1CC12CCc1ccccc12` (configuration not stated), the IC50 worked out at 3.7 µM in data set [13] and 1.2 µM in data set [14].
As to `N[C@@H]1C[C@H]1c1ccc(C(=O)NCc2ccccc2)cc1`, the IC50 in data set [18] worked out at 0.3 µM; in the data set with Kasumi 1 it was 0.03 µM; in the data set on U-937, 1.6 µM; in the data set on HL-60 it was 1.7 µM; with OCI-AML-3, 1.8 µM; in the data set with THP-1, 0.1 µM. In addition, half-maximal inhibition with MV4-11 [19] (IC50) required 0.18 µM.

Values taken from ChEMBL document CHEMBL4813911 (J Med Chem, 2020).
